Experimental data: PubChem BioAssay AID1963848 (Molecular Pharmacology Branch, DTP, NCI, 2024)

System: 379773-124-R-J2-PDC spheroid viability
Assay: Anticancer human tumor 379773-124-R-J2-PDC patient-derived endometrial carcinoma cell line growth inhibition [POLQ]
Details: spheroids with HUVEC and MSC; for IC50: curve of first compound; for viability, T/C: stronger effect = lower value
In short: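 PDC + HUVEC + MSC complex spheroids; POLQ inhibitors ± partner drugs; top conc. at/near clinical Cmax, else 10 microM (SN-38 1 microM), half-log dilutions; 37 degrees C, 5% CO2.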

[1] = second compound 0.0316 µM, first compound 0.0316 µM
[2] = second compound 0.0316 µM, first compound 0.1 µM
[3] = second compound 0.1 µM, first compound 0.0316 µM
[4] = second compound 0.1 µM, first compound 0.1 µM
[5] = second compound 0.316 µM, first compound 0.0316 µM
[6] = second compound 0.316 µM, first compound 0.1 µM
[7] = second compound 1 µM, first compound 0.0316 µM
[8] = second compound 1 µM, first compound 0.1 µM
[9] = second compound 3.16 µM, first compound 0.0316 µM
[10] = second compound 3.16 µM, first compound 0.1 µM
[11] = second compound 10 µM, first compound 0.0316 µM
[12] = second compound 10 µM, first compound 0.1 µM
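Further: spheroids exposed to drugs for seven days before readout.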
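Wherever viability, T/C is given: percent viability relative to DMSO vehicle control taken as 100%.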

**Q.** How did the IC50 (second compound 0.0316 µM) turn out when `O=C(Nc1ccc(O)c(NS(=O)(=O)c2ccc(F)cc2)c1)c1ccc(-c2ccccc2)cc1` + COC1C(OC(N)=O)C(O)C(Oc2ccc3c(O)c(NC(=O)c4ccc(O)c(CC=C(C)C)c4)c(=O)oc3c2C)OC1(C)C was run?
**A.** The IC50 was > 10000 nM.

**Q.** What about the IC50 (second compound 0.1 µM) of the same compound?
**A.** The IC50 was > 10000 nM.

**Q.** What about the IC50 (second compound 0.316 µM) of the same compound?
**A.** The IC50 was > 10000 nM.

**Q.** And the IC50 (second compound 1 µM)?
**A.** Its IC50 is > 10000 nM.

**Q.** What about the IC50 (second compound 3.16 µM) of the same compound?
**A.** The IC50 was > 10000 nM.

**Q.** And the IC50 (second compound 10 µM)?
**A.** Its IC50 is > 10000 nM.

**Q.** And the viability, T/C [1]?
**A.** Its viability, T/C is 88.1%.

**Q.** What about the viability, T/C [2] of the same compound?
**A.** Its viability, T/C is 79.6%.

**Q.** What about the viability, T/C (second compound 0.0316 µM, first compound 0.316 µM) of the same compound?
**A.** The viability, T/C was 87.4%.

**Q.** And the viability, T/C (second compound 0.0316 µM, first compound 1 µM)?
**A.** The viability, T/C was 75%.

**Q.** What about the viability, T/C (second compound 0.0316 µM, first compound 3.16 µM) of the same compound?
**A.** Its viability, T/C is 82.5%.

**Q.** And the viability, T/C (second compound 0.0316 µM, first compound 10 µM)?
**A.** The viability, T/C was 76.2%.

**Q.** And the viability, T/C [3]?
**A.** Its viability, T/C is 83.5%.

**Q.** What about the viability, T/C [4] of the same compound?
**A.** The viability, T/C was 77.2%.

**Q.** And the viability, T/C (second compound 0.1 µM, first compound 0.316 µM)?
**A.** Its viability, T/C is 99.9%.

**Q.** And the viability, T/C (second compound 0.1 µM, first compound 1 µM)?
**A.** Its viability, T/C is 79.5%.

**Q.** What about the viability, T/C (second compound 0.1 µM, first compound 3.16 µM) of the same compound?
**A.** The viability, T/C was 75.8%.

**Q.** And the viability, T/C (second compound 0.1 µM, first compound 10 µM)?
**A.** Its viability, T/C is 74%.

**Q.** What about the viability, T/C [5] of the same compound?
**A.** The viability, T/C was 82%.

**Q.** And the viability, T/C [6]?
**A.** The viability, T/C was 92.8%.

**Q.** What about the viability, T/C (second compound 0.316 µM, first compound 0.316 µM) of the same compound?
**A.** The viability, T/C was 95.6%.

**Q.** And the viability, T/C (second compound 0.316 µM, first compound 1 µM)?
**A.** Its viability, T/C is 73.4%.

**Q.** And the viability, T/C (second compound 0.316 µM, first compound 3.16 µM)?
**A.** The viability, T/C was 86.4%.

**Q.** And the viability, T/C (second compound 0.316 µM, first compound 10 µM)?
**A.** Its viability, T/C is 67.1%.

**Q.** What about the viability, T/C [7] of the same compound?
**A.** Its viability, T/C is 95.1%.

**Q.** And the viability, T/C [8]?
**A.** Its viability, T/C is 73.5%.

**Q.** What about the viability, T/C (second compound 1 µM, first compound 0.316 µM) of the same compound?
**A.** Its viability, T/C is 79.8%.

**Q.** And the viability, T/C (second compound 1 µM, first compound 1 µM)?
**A.** The viability, T/C was 79%.

**Q.** And the viability, T/C (second compound 1 µM, first compound 3.16 µM)?
**A.** Its viability, T/C is 83.9%.

**Q.** And the viability, T/C (second compound 1 µM, first compound 10 µM)?
**A.** Its viability, T/C is 70.1%.

**Q.** What about the viability, T/C [9] of the same compound?
**A.** The viability, T/C was 79.2%.

**Q.** What about the viability, T/C [10] of the same compound?
**A.** Its viability, T/C is 88.2%.

**Q.** What about the viability, T/C (second compound 3.16 µM, first compound 0.316 µM) of the same compound?
**A.** The viability, T/C was 77.9%.

**Q.** What about the viability, T/C (second compound 3.16 µM, first compound 1 µM) of the same compound?
**A.** The viability, T/C was 80.7%.

**Q.** And the viability, T/C (second compound 3.16 µM, first compound 3.16 µM)?
**A.** Its viability, T/C is 90.3%.

**Q.** What about the viability, T/C (second compound 3.16 µM, first compound 10 µM) of the same compound?
**A.** Its viability, T/C is 83.3%.

**Q.** What about the viability, T/C [11] of the same compound?
**A.** The viability, T/C was 84.4%.

**Q.** And the viability, T/C [12]?
**A.** Its viability, T/C is 78.9%.

**Q.** And the viability, T/C (second compound 10 µM, first compound 0.316 µM)?
**A.** Its viability, T/C is 80.7%.

**Q.** What about the viability, T/C (second compound 10 µM, first compound 1 µM) of the same compound?
**A.** The viability, T/C was 80.4%.

**Q.** And the viability, T/C (second compound 10 µM, first compound 3.16 µM)?
**A.** The viability, T/C was 75.3%.

**Q.** And the viability, T/C (second compound 10 µM, first compound 10 µM)?
**A.** The viability, T/C was 74.6%.

**Q.** For `CC[C@@]1(O)C(=O)OCc2c1cc1n(c2=O)Cc2cc3c(CN(C)C)c(O)ccc3nc2-1` + Cc1cccc(N(C)C(=O)C2C(O)CCN2c2nc(C)cc(C(F)(F)F)c2C#N)c1, which IC50 (second compound 0.0316 µM) is on record?
**A.** Its IC50 is 24.3 nM.

**Q.** What about the IC50 (second compound 0.1 µM) of the same compound?
**A.** Its IC50 is 21.1 nM.

**Q.** And the IC50 (second compound 0.316 µM)?
**A.** Its IC50 is 22.2 nM.

**Q.** What about the IC50 (second compound 1 µM) of the same compound?
**A.** The IC50 was 20.2 nM.

**Q.** And the IC50 (second compound 3.16 µM)?
**A.** The IC50 was 19.5 nM.

**Q.** What about the IC50 (second compound 10 µM) of the same compound?
**A.** Its IC50 is 16.3 nM.

**Q.** And the viability, T/C (second compound 0.0316 µM, first compound 0.000316 µM)?
**A.** Its viability, T/C is 90.3%.

**Q.** And the viability, T/C (second compound 0.0316 µM, first compound 0.001 µM)?
**A.** Its viability, T/C is 89.1%.

**Q.** And the viability, T/C (second compound 0.0316 µM, first compound 0.00316 µM)?
**A.** The viability, T/C was 77.8%.

**Q.** And the viability, T/C (second compound 0.0316 µM, first compound 0.01 µM)?
**A.** Its viability, T/C is 85.4%.

**Q.** And the viability, T/C [1]?
**A.** Its viability, T/C is 39.6%.

**Q.** And the viability, T/C [2]?
**A.** The viability, T/C was 14.2%.

**Q.** What about the viability, T/C (second compound 0.1 µM, first compound 0.000316 µM) of the same compound?
**A.** The viability, T/C was 89.2%.

**Q.** What about the viability, T/C (second compound 0.1 µM, first compound 0.001 µM) of the same compound?
**A.** The viability, T/C was 88.6%.

**Q.** And the viability, T/C (second compound 0.1 µM, first compound 0.00316 µM)?
**A.** The viability, T/C was 84.1%.

**Q.** What about the viability, T/C (second compound 0.1 µM, first compound 0.01 µM) of the same compound?
**A.** The viability, T/C was 81.9%.

**Q.** What about the viability, T/C [3] of the same compound?
**A.** Its viability, T/C is 32.9%.

**Q.** What about the viability, T/C [4] of the same compound?
**A.** The viability, T/C was 14%.

**Q.** What about the viability, T/C (second compound 0.316 µM, first compound 0.000316 µM) of the same compound?
**A.** Its viability, T/C is 87.3%.

**Q.** And the viability, T/C (second compound 0.316 µM, first compound 0.001 µM)?
**A.** Its viability, T/C is 77.5%.

**Q.** And the viability, T/C (second compound 0.316 µM, first compound 0.00316 µM)?
**A.** The viability, T/C was 85.4%.

**Q.** And the viability, T/C (second compound 0.316 µM, first compound 0.01 µM)?
**A.** The viability, T/C was 85.7%.

**Q.** And the viability, T/C [5]?
**A.** Its viability, T/C is 34.8%.

**Q.** What about the viability, T/C [6] of the same compound?
**A.** The viability, T/C was 13.8%.

**Q.** What about the viability, T/C (second compound 1 µM, first compound 0.000316 µM) of the same compound?
**A.** Its viability, T/C is 86.6%.

**Q.** And the viability, T/C (second compound 1 µM, first compound 0.001 µM)?
**A.** The viability, T/C was 83.3%.

**Q.** And the viability, T/C (second compound 1 µM, first compound 0.00316 µM)?
**A.** Its viability, T/C is 95.1%.

**Q.** And the viability, T/C (second compound 1 µM, first compound 0.01 µM)?
**A.** The viability, T/C was 86.8%.

**Q.** And the viability, T/C [7]?
**A.** The viability, T/C was 26.7%.

**Q.** And the viability, T/C [8]?
**A.** Its viability, T/C is 16%.

**Q.** And the viability, T/C (second compound 3.16 µM, first compound 0.000316 µM)?
**A.** The viability, T/C was 84.9%.

**Q.** What about the viability, T/C (second compound 3.16 µM, first compound 0.001 µM) of the same compound?
**A.** The viability, T/C was 87.7%.

**Q.** And the viability, T/C (second compound 3.16 µM, first compound 0.00316 µM)?
**A.** Its viability, T/C is 93.3%.

**Q.** What about the viability, T/C (second compound 3.16 µM, first compound 0.01 µM) of the same compound?
**A.** Its viability, T/C is 87%.

**Q.** What about the viability, T/C [9] of the same compound?
**A.** The viability, T/C was 23%.

**Q.** What about the viability, T/C [10] of the same compound?
**A.** The viability, T/C was 17.2%.

**Q.** And the viability, T/C (second compound 10 µM, first compound 0.000316 µM)?
**A.** Its viability, T/C is 97.7%.

**Q.** What about the viability, T/C (second compound 10 µM, first compound 0.001 µM) of the same compound?
**A.** Its viability, T/C is 95%.

**Q.** And the viability, T/C (second compound 10 µM, first compound 0.00316 µM)?
**A.** Its viability, T/C is 86.4%.

**Q.** What about the viability, T/C (second compound 10 µM, first compound 0.01 µM) of the same compound?
**A.** Its viability, T/C is 70.6%.

**Q.** And the viability, T/C [11]?
**A.** Its viability, T/C is 22.1%.

**Q.** And the viability, T/C [12]?
**A.** Its viability, T/C is 17.8%.
